Data on six compounds can be found in patent EP4722195A1, “PH-SENSITIVE CATIONIC LIPID AND LIPID NANOPARTICLES” (National University Corporation Hokkaido University, priority 2023, dated 2024).

Like-named read-outs stand apart in the source and are kept apart here.

The term pKa denotes the negative logarithm of the acid dissociation constant.

Series [1] relates to liver. Put plainly: Fluc activity in the liver of mice administered Fluc mRNA-loaded lipid nanoparticles. The format is in vivo, BALB/c mice. The following applies: Example 31, Fig. 10; Fluc mRNA-loaded lipid nanoparticles containing 3 mol% DSPC; N = 3. The protocol: (§1) Lipid nanoparticles were administered to mice by intravenous injection into the tail vein using a 27G needle. Unless otherwise specified, BALB/c mice (4 to 5 weeks old, female) were used.
(§2) First, BALB/c mice (female, 4 weeks old) were intravenously injected with lipid nanoparticles encapsulating Fluc mRNA (Fluc mRNA-loaded lipid nanoparticles) at a dose of 0.1 mg mRNA/kg. Six hours after intravenous injection, the mice were euthanized, each tissue was collected, frozen in liquid nitrogen, and stored at -80°C. The tissues were homogenized in passive lysis buffer (manufactured by Promega) using a bead-type cell disruptor (Micro Smash MS-100R, manufactured by TOMY Seiko). Tissue debris was removed by centrifugation, and the supernatant was collected. Fluc activity in the supernatant was measured using the Luciferase Assay System (E1500, manufactured by Promega) according to the manufacturer's protocol. Luminescence was measured using a luminometer (Luminescencer-PSN, manufactured by ATTO). Protein concentration was determined using a commercially available assay kit (BCA Protein Assay Kit, manufactured by Pierce). Fluc activity was expressed as relative light units (RLU) per mg of protein.
Subsequently, lipid nanoparticles encapsulating Fluc mRNA prepared using TxT-5-5A10, TxT-5-5A12, TxT-5-5A12β, TxT-5-5A14, and TxT-5-5A16 were administered to mice to evaluate luciferase expression levels (Fluc activity) in various tissues. Specifically, each Fluc mRNA-loaded lipid nanoparticle was administered to Balb/c mice at a dose of 0.1 mg mRNA/kg. Six hours after administration, the mice were euthanized, and their organs were collected to measure Fluc activity (RLU/mg protein) (N = 2 or 4).

A further series relates to various tissues. Put plainly: Fluc activity in various tissues of mice administered Fluc mRNA-loaded lipid nanoparticles. Conditions: Example 31, Fig. 10; Fluc mRNA-loaded lipid nanoparticles containing 3 mol% DSPC; N = 3. It counts as in vivo, BALB/c mice. How it is done:
as §1
as §2, with “protein. […]” for “protein.”

Series [2] can be described thus: Encapsulation rate of lipid nanoparticles (Ribogreen). The format is physicochemical. The protocol:
The encapsulation rate of the lipid nanoparticles was determined by measuring the amount of encapsulated nucleic acid (mRNA) using Ribogreen (manufactured by Life Technologies), which is an RNA intercalator. The mRNA amount was quantified based on a calibration curve prepared from a series of diluted mRNA solutions at known concentrations.
Specifically, 10 mM HEPES buffer (pH 7.4), 10 w/v% Triton X-100, and Ribogreen were mixed at 978.8 µL, 20 µL, and 1.25 µL per 10 wells, respectively, to obtain a Triton(+) buffer. A Triton(-) buffer was obtained in replacing Triton X-100 with 10 mM HEPES buffer (pH 7.4). 100 µL/well of the sample was added to a black 96-well plate for fluorescence measurement, and 100 µL/well of Triton(+) buffer or Triton(-) buffer was added. After the plate was gently shaken on a shaking incubator (SI-300, manufactured by AS ONE) (700 rpm, 30 seconds), the fluorescence intensity of each well was measured using a microplate reader (VARIOSKAN LUX, manufactured by Thermo Fisher Scientific) (wavelength Ex/Em=500 nm/525 nm), and the nucleic acid encapsulation rate (%) was calculated.

The conditions of series [3]: lipid nanoparticles, tns.
Series [4] concerns liver. Put plainly: EGFP expression in liver tissue sections of mice administered EGFP mRNA-loaded lipid nanoparticles (confocal microscopy). It counts as in vivo, Balb/c mice. The following applies: Example 27, Fig. 6; EGFP mRNA-loaded lipid nanoparticles TxT/DSPC/chol/PEG-DMG=50/3/47/1.5 (mol%); 24 hours post-administration. How it is done:
Subsequently, each EGFP mRNA-loaded lipid nanoparticle was administered to Balb/c mice at a dose of 0.2 mg mRNA/kg. At 23 hours and 50 minutes post-administration, fluorescently labeled lectin (DyLight-649 Lycopersicon (Tomato) Lectin) was intravenously injected via the tail vein at 40 µg/mouse to fluorescently label vascular endothelial cells. At 24 hours after administration of the lipid nanoparticles, the mice were euthanized, and their livers were collected to prepare tissue sections. For nuclear staining, the tissue sections were immersed in a nuclear staining solution (1 µg/mL Hoechst 33342 dissolved in PBS(-)), cooled on ice, and incubated for at least 30 minutes in the dark. The stained tissue sections were then observed using a confocal laser scanning microscope. Subsequently, in the same manner as Example 26, each EGFP mRNA-loaded lipid nanoparticle was administered to Balb/c mice. At 23 hours and 50 minutes post-administration, fluorescently labeled lectin was administered. At 24 hours after administration of the lipid nanoparticles, the mice were euthanized, and their livers were collected to prepare tissue sections. Each tissue section was observed using a confocal laser scanning microscope. In the figure, the upper panels show fluorescence images of EGFP, and the lower panels show fluorescence images of vascular endothelial cells (fluorescently labeled lectin).

The nature of series [5]: Zeta potential of lipid nanoparticles. It counts as physicochemical. How it is done: (§3) The average particle size (number average value), ζ-average particle size, and polydispersity index (PdI) of the lipid nanoparticles in PBS(-) (pH 7.4), and the zeta potential in 10 mM HEPES buffer (pH 7.4) were measured using an analyzer "Zetasizer Nano ZS ZEN3600" (manufactured by Malvern) utilizing dynamic light scattering.

Series [6] can be described thus: Average particle size and polydispersity index of lipid nanoparticles (dynamic light scattering). The format is physicochemical. How it is done:
as §3

The test system of another series is factor VII (F7). The following applies: mouse liver; siRNA; cited from earlier work.
In the next series the test system is spleen. As to the kind of experiment: Fluc activity in the spleen of mice administered Fluc mRNA-loaded lipid nanoparticles. The following applies: Example 22, Fig. 1; TxT/DSPC/chol/PEG-DMG=50/15/35/1.5 (mol%); 0.1 mg mRNA/kg intravenous; six hours after administration; comparison among TxT lipids. It counts as in vivo, BALB/c mice. The protocol:
as §1
as §2, with “protein. […]” for “protein.”

Series [7] is described as follows: Apparent pKa of lipid nanoparticles (TNS).
Where [8] appears, read: Table 3, Fluc mRNA-loaded lipid nanoparticles, TxT/DSPC/chol/PEG-DMG=50/3/47/1.5 (mol%).
Setting [9] is: Table 5, EGFP mRNA-loaded lipid nanoparticles, TxT/DSPC/chol/PEG-DMG=50/3/47/1.5 (mol%), total flow rate 3.0 mL/min.
[10] abbreviates: Table 8 (Example 32), lipid nanoparticles for TTR-targeted genome editing, Cas9-mRNA and TTR-gRNA 1:2 (N/P = 6.0), TxT/DSPC/chol/PEG-DMG = 50/3/47/1.5 (mol%).
The mark [11] stands for this setting: Table 1, Fluc mRNA-loaded lipid nanoparticles, TxT/DSPC/chol/PEG-DMG=50/15/35/1.5 (mol%).

“2-((2-(2-((diheptylamino)methyl)cyclohexyl)acetoxy)methyl)-2-(3-(piperidin-1-yl)propanamido)propane-1,3-diyl bis(2-(diheptylcarbamoyl)cyclohexane-1-carboxylate) [TxT-5-4(6)A14]”: the “Fluc activity in the liver relative to spleen and lung” value with liver [1] was “particularly high activity confirmed in the liver”. Besides, the “Fluc activity in the liver, spleen, and lung” value in the series with various tissues was “Fluc activity was observed in the organs, i.e., liver, spleen, and lungs”.
In [2] (setting [8]), `CCCCC(CC)CN(CC(CC)CCCC)C(=O)CCCC(=O)OCC(COC(=O)CCCC(=O)N(CC(CC)CCCC)CC(CC)CCCC)(COC(=O)CCCC(=O)N(CC(CC)CCCC)CC(CC)CCCC)NC(=O)CCN1CCCCC1` (stereo not drawn) [TxT-5-5A16b] had a mRNA concentration of 0.019 µg/µL and a mRNA encapsulation rate of 96.0%. Also, in [2] (setting [9]), the mRNA concentration turned out to be 0.020 µg/µL and the mRNA encapsulation rate worked out at 97.9%. Further, in series [3], the pKa is reported as 4.99. The “fluorescence of EGFP in the liver tissues” value (from here on “fluorescence of EGFP”) in the series on liver [4] was “fluorescence of EGFP was observed”. Further, the ζ-potential in series [5] (setting [8]) is listed as -11.2 mV. Moreover, the ζ-potential in series [5] (setting [9]) is on record as -6.0 mV. Further, in [6] (setting [8]), the Pdl turned out to be 0.22, the “number average particle size” value stood at 61.6 nm and the ζ-average particle size was 103.7 nm. Further, in series [6] (setting [9]), the Pdl amounted to 0.07, the “number average particle size” value is recorded as 59.1 nm and the ζ-average particle size was determined as 81.4 nm.
Regarding “2-(6-(didecylamino)-2,6-dioxohexyl)-2-(3-(piperidin-1-yl)propanamido)propane-1,3-diyl bis(5-(didecylamino)-5-oxopentanoate) [TxT-5-5A20]”, in series [2] (setting [8]), the mRNA concentration is on record as 0.018 µg/µL and the mRNA encapsulation rate worked out at 98.2%. In addition, in series [2] (setting [9]), the mRNA concentration is 0.022 µg/µL and the mRNA encapsulation rate came to 97.8%. In series [3], this compound registered a pKa of 6.53. Further, in the series with liver [4], the “fluorescence of EGFP” value is reported as “fluorescence of EGFP was observed”. In series [5] (setting [8]), this compound had a ζ-potential of -4.4 mV. In series [5] (setting [9]), this compound displayed a ζ-potential of -8.7 mV. Also, in series [6] (setting [8]), the Pdl was determined as 0.11, the “number average particle size” value worked out at 95.1 nm and the ζ-average particle size was determined as 136.2 nm. In series [6] (setting [9]), the Pdl was found to be 0.08, the “number average particle size” value was 108.4 nm and the ζ-average particle size is given as 136.2 nm.
With “2-(6-(didodecylamino)-2,6-dioxohexyl)-2-(3-(piperidin-1-yl)propanamido)propane-1,3-diyl bis(5-(didodecylamino)-5-oxopentanoate) [TxT-5-5A24]”, the values for the mRNA concentration in series [2] (setting [8]), in series [2] (setting [9]) and in series [2] (setting [10]) were 0.022 µg/µL, 0.021 µg/µL and 0.541 µg/µL, respectively. Besides, the results for the mRNA encapsulation rate in series [2] (setting [8]), in series [2] (setting [9]) and in series [2] (setting [10]) were 96.5%, 97.3% and 98.4%, respectively. This compound also had a pKa in series [3] of 6.68. Further, the “fluorescence of EGFP” value in the series with liver [4] is listed as “fluorescence of EGFP was observed”. Moreover, the “gene expression in hepatocytes” value with liver [4] was “notably high levels of gene expression”. The ζ-potential in series [5] (setting [8]) is reported as -8.9 mV; in series [5] (setting [9]) it was -4.2 mV; in series [5] (setting [10]), -6.5 mV. Also, in [6] (Example 32, Table 8, lipid nanoparticles for TTR-targeted genome editing), the “average particle diameter, comparison among TxT lipids” value is listed as “smallest average particle diameter”. Besides, the Pdl in [6] (setting [8]) came to 0.14; in series [6] (setting [9]), 0.10; in series [6] (setting [10]), 0.12. Besides, the “number average particle size” value in series [6] (setting [8]) is 92.2 nm; in series [6] (setting [9]), 85.3 nm; in [6] (setting [10]), 53.1 nm. The ζ-average particle size in series [6] (setting [8]) is 133.1 nm; in series [6] (setting [9]), 129.5 nm; in series [6] (setting [10]), 73.8 nm.
For the compound `CCCCC/C=C\C/C=C\CCCCCCCCOC1(OCCCCCCCC/C=C\C/C=C\CCCCC)CCN(C)CC1` [YSK05], in the series with factor VII (F7), the “ED50 in factor VII (F7) knockdown” value was 0.06 mg siRNA/kg.
`CCCCCCN(CCCCCC)C(=O)CCCC(=O)OCC(COC(=O)CCCC(=O)N(CCCCCC)CCCCCC)(COC(=O)CCCC(=O)N(CCCCCC)CCCCCC)NC(=O)CCN1CCCCC1` [TxT-5-5A12, 2-(((5-(dihexylamino)-5-oxopentanoyl)oxy)methyl)-2-(3-(piperidin-1-yl)propanamido)propane-1,3-diyl bis(5-(dihexylamino)-5-oxopentanoate)]: the mRNA concentration in [2] (setting [11]), in [2] (setting [8]) and in series [2] (setting [9]) was 0.019 µg/µL throughout. In addition, the mRNA encapsulation rate in [2] (setting [11]) came to 85.9%; in series [2] (setting [8]) it was 85.9%; in [2] (setting [9]), 95.5%. Besides, the “fluorescence of EGFP” value in the series on liver [4] was “fluorescence of EGFP was observed”. Also, the “Fluc activity in the spleen” value in the series on spleen is “highest Fluc activity in the spleen”. For the same compound, the ζ-potential is on record as -6.7 mV in [5] (setting [11]), -6.7 mV in [5] (setting [8]) and -9.4 mV in series [5] (setting [9]). For the same compound, the Pdl was determined as 0.08 in series [6] (setting [11]), 0.10 in series [6] (setting [8]) and 0.13 in series [6] (setting [9]). In addition, the “number average particle size” value in series [6] (setting [11]) stood at 124.5 nm; in series [6] (setting [8]) it was 124.5 nm; in series [6] (setting [9]) it was 80.2 nm. For the same compound, the ζ-average particle size in series [6] (setting [11]) came out at 155.2 nm; in [6] (setting [8]), 155.2 nm; in series [6] (setting [9]), 114.4 nm. For the same compound, the pKa was 6.44 in series [7] (Table 1, apparent pKa of Fluc mRNA-loaded lipid nanoparticles, TxT/DSPC/chol/PEG-DMG=50/15/35/1.5 (mol%)) and 6.58 in series [7] (setting [8]).
